Measured values published in the supplement of paper PMC10307832.

Assays:
Test in all cases: relative viability (nuclei count vs DMSO), 5 days (fraction); higher = more cells survive
[1] = test system: HCC-78
In short: (§1)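 Lung cancer cell lines, seeded in 1536-well plates, were treated the following day by pin tool with a single drug or with five library-drug doses (not always all listed) in √10 steps on top of a fixed anchor-drug dose. Cells were fixed and nuclei stained in one step after 5 days, and nuclei were counted. Relative viability is the nuclei count for treated wells divided by that for vehicle wells, reported as medians of duplicate plates.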

[2] = test system: LK-2
In short: as §1

[3] = test system: NCI-H1975
In short: as §1

[4] = test system: BEN
In short: as §1

[5] = test system: NCI-H2087
In short: as §1

[6] = test system: LCLC-97TM1
In short: as §1

[7] = test system: PC-3 [JPC-3]
In short: as §1

[8] = test system: NCI-H1666
In short: as §1

[9] = test system: ChaGo-K-1
In short: as §1

[10] = test system: NCI-H2342
In short: as §1

[11] = test system: NCI-H1944
In short: as §1

[12] = test system: NCI-H596
In short: as §1

[13] = test system: NCI-H1651
In short: as §1

[14] = test system: LC-2-ad
In short: as §1

[15] = test system: NCI-H358
In short: as §1

[16] = test system: NCI-H1355
In short: as §1

[17] = test system: NCI-H650
In short: as §1

[18] = test system: LU99A
In short: as §1

[19] = test system: NCI-H838
In short: as §1

[20] = test system: LXF-289
In short: as §1

Compound Cc1sc2c(c1C)C(c1ccc(Cl)cc1)=N[C@@H](CC(=O)OC(C)(C)C)c1nnc(C)n1-2 [JQ1] + NC(=O)Nc1cc(-c2cccc(F)c2)sc1C(=O)N[C@H]1CCCNC1 [AZD7762] (partner 0.2 µM) has a relative viability ([1]; first compound 0.04 µM) of 0.762, a relative viability ([1]; first compound 0.1265 µM) of 0.574 and a relative viability ([1]; first compound 0.4 µM) of 0.559. The relative viability ([1]; first compound 1.265 µM) was 0.421, the relative viability ([1]; first compound 4 µM) was 0.208 and the relative viability ([2]; first compound 0.04 µM) was 0.464. It also gave a relative viability ([2]; first compound 0.1265 µM) of 0.388, a relative viability ([2]; first compound 0.4 µM) of 0.229 and a relative viability ([2]; first compound 1.265 µM) of 0.101. For the same compound, the relative viability ([2]; first compound 4 µM) was 0.128, the relative viability ([3]; first compound 0.04 µM) was 0.678 and the relative viability ([3]; first compound 0.1265 µM) was 0.412. The relative viability ([3]; first compound 0.4 µM) was 0.767, the relative viability ([3]; first compound 1.265 µM) was 0.526 and the relative viability ([3]; first compound 4 µM) was 0.41. For the same compound, the relative viability ([4]; first compound 0.04 µM) was 0.718, the relative viability ([4]; first compound 0.1265 µM) was 0.585 and the relative viability ([4]; first compound 0.4 µM) was 0.644. The relative viability ([4]; first compound 1.265 µM) was 0.468, the relative viability ([4]; first compound 4 µM) was 0.372 and the relative viability ([5]; first compound 0.04 µM) was 1.34. The relative viability ([5]; first compound 0.1265 µM) was 1.29, the relative viability ([5]; first compound 0.4 µM) was 1.29 and the relative viability ([5]; first compound 1.265 µM) was 0.604. It also gave a relative viability ([5]; first compound 4 µM) of 0.383, a relative viability ([6]; first compound 0.04 µM) of 0.269 and a relative viability ([6]; first compound 0.1265 µM) of 0.255. The relative viability ([6]; first compound 0.4 µM) was 0.268, the relative viability ([6]; first compound 1.265 µM) was 0.097 and the relative viability ([6]; first compound 4 µM) was 0.0653. For the same compound, the relative viability ([7]; first compound 0.04 µM) was 0.709, the relative viability ([7]; first compound 0.1265 µM) was 0.849 and the relative viability ([7]; first compound 0.4 µM) was 0.497. It also gave a relative viability ([7]; first compound 1.265 µM) of 0.527, a relative viability ([7]; first compound 4 µM) of 0.438 and a relative viability ([8]; first compound 0.04 µM) of 0.869. For the same compound, the relative viability ([8]; first compound 0.1265 µM) was 0.793, the relative viability ([8]; first compound 0.4 µM) was 0.65 and the relative viability ([8]; first compound 1.265 µM) was 0.48. It also gave a relative viability ([8]; first compound 4 µM) of 0.488, a relative viability ([9]; first compound 0.04 µM) of 0.875 and a relative viability ([9]; first compound 0.1265 µM) of 0.89. It also gave a relative viability ([9]; first compound 0.4 µM) of 0.899, a relative viability ([9]; first compound 1.265 µM) of 0.821 and a relative viability ([9]; first compound 4 µM) of 0.536. It also gave a relative viability ([10]; first compound 0.04 µM) of 0.544, a relative viability ([10]; first compound 0.1265 µM) of 0.475 and a relative viability ([10]; first compound 0.4 µM) of 0.588. It also gave a relative viability ([10]; first compound 1.265 µM) of 0.465, a relative viability ([10]; first compound 4 µM) of 0.4 and a relative viability ([11]; first compound 0.04 µM) of 0.533. The relative viability ([11]; first compound 0.1265 µM) was 0.412, the relative viability ([11]; first compound 0.4 µM) was 0.434 and the relative viability ([11]; first compound 1.265 µM) was 0.365. The relative viability ([11]; first compound 4 µM) was 0.313, the relative viability ([12]; first compound 0.04 µM) was 1.02 and the relative viability ([12]; first compound 0.1265 µM) was 0.898. It also gave a relative viability ([12]; first compound 0.4 µM) of 0.704, a relative viability ([12]; first compound 1.265 µM) of 0.632 and a relative viability ([12]; first compound 4 µM) of 0.373. For the same compound, the relative viability ([13]; first compound 0.04 µM) was 0.538, the relative viability ([13]; first compound 0.1265 µM) was 0.45 and the relative viability ([13]; first compound 0.4 µM) was 0.427. The relative viability ([13]; first compound 1.265 µM) was 0.421, the relative viability ([13]; first compound 4 µM) was 0.419 and the relative viability ([14]; first compound 0.04 µM) was 0.793. For the same compound, the relative viability ([14]; first compound 0.1265 µM) was 0.42, the relative viability ([14]; first compound 0.4 µM) was 0.374 and the relative viability ([14]; first compound 1.265 µM) was 0.249. For the same compound, the relative viability ([14]; first compound 4 µM) was 0.204, the relative viability ([15]; first compound 0.04 µM) was 0.524 and the relative viability ([15]; first compound 0.1265 µM) was 0.565. The relative viability ([15]; first compound 0.4 µM) was 0.538, the relative viability ([15]; first compound 1.265 µM) was 0.344 and the relative viability ([15]; first compound 4 µM) was 0.232. The relative viability ([16]; first compound 0.04 µM) was 0.747, the relative viability ([16]; first compound 0.1265 µM) was 0.769 and the relative viability ([16]; first compound 0.4 µM) was 0.705. The relative viability ([16]; first compound 1.265 µM) was 0.554, the relative viability ([16]; first compound 4 µM) was 0.406 and the relative viability ([17]; first compound 0.04 µM) was 0.935. The relative viability ([17]; first compound 0.1265 µM) was 0.591, the relative viability ([17]; first compound 0.4 µM) was 1 and the relative viability ([17]; first compound 1.265 µM) was 0.565. The relative viability ([17]; first compound 4 µM) was 0.302, the relative viability ([18]; first compound 0.04 µM) was 0.443 and the relative viability ([18]; first compound 0.4 µM) was 0.271. For the same compound, the relative viability ([18]; first compound 1.265 µM) was 0.165, the relative viability ([18]; first compound 4 µM) was 0.172 and the relative viability ([19]; first compound 0.04 µM) was 0.907. It also gave a relative viability ([19]; first compound 0.1265 µM) of 0.782, a relative viability ([19]; first compound 0.4 µM) of 0.817 and a relative viability ([19]; first compound 1.265 µM) of 0.805. For the same compound, the relative viability ([19]; first compound 4 µM) was 0.628, the relative viability ([20]; first compound 0.04 µM) was 1.12 and the relative viability ([20]; first compound 0.1265 µM) was 1.07. It also gave a relative viability ([20]; first compound 0.4 µM) of 0.851, a relative viability ([20]; first compound 1.265 µM) of 1.02 and a relative viability ([20]; first compound 4 µM) of 0.512.
